Structures can show the parent of a compound that is named as a salt.

The test system of one experiment is T1, 1N4R p-tau.
T1 construct: made in house; host or cells: E. coli (PIMAX system)
Nature of the experiment: p-tau aggregation modulator screen of 1280-compound library (ThS fluorescence net change over 16 h).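 For ThS net change: 30 µM compound with 6 µM p-tau over 16 h.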 In kind it is biochemical. More on the design: key to PTAI>3SD: *: PTAI>3SD.
Conditions: not given
`Cc1onc(-c2c(Cl)cccc2Cl)c1C(=O)N[C@@H]1C(=O)N2[C@@H]1SC(C)(C)[C@@H]2C(=O)[O-].O.[Na+]` [Dicloxacillin sodium salt hydrate] yielded a ThS net change of 415.
Same read-out and setting: with `COc1ccc([C@@H]2Sc3ccccc3N(CCN(C)C)C(=O)[C@@H]2OC(C)=O)cc1` [Diltiazem hydrochloride] the figure was 308.

The same experiment, now with this note: 1280-compound library screen; ThS fluorescence net change over 16 h.
Take `NS(=O)(=O)c1cc(Cl)c(Cl)c(S(N)(=O)=O)c1` [Dichlorphenamide]: the ThS net change was 404.
Still for that read-out and setting: for `C/C=C(/C(=C/C)c1ccc(O)cc1)c1ccc(O)cc1` [Dienestrol] the value was 410; for `CCN(CC)C(=O)N1CCN(C)CC1` [Diethylcarbamazine citrate], 391; for `CC(=O)OCC(=O)[C@@]1(OC(C)=O)[C@@H](C)C[C@H]2[C@@H]3C[C@H](F)C4=CC(=O)C=C[C@]4(C)[C@@]3(F)[C@@H](O)C[C@@]21C` [Diflorasone Diacetate], 407.
Still for that read-out and setting: for `CC1(C)OC(=O)NC1=O` [Dimethadione] the value was 381; for `CCCCc1cc2ccccc2c(OCCN(C)C)n1` [Dimethisoquin hydrochloride], 394; for `CCCCC[C@H](O)/C=C/[C@@H]1[C@@H](C/C=C\CCCC(=O)O)[C@@H](O)C[C@H]1O` [Dinoprost trometamol], 384.
`CN1CCC(OC(c2ccccc2)c2ccccc2)CC1` [Diphenylpyraline hydrochloride]: the ThS net change is reported as 380.
In the case of `Cn1c(=O)c2c(ncn2CC(O)CO)n(C)c1=O` (centres unmarked) [Diprophylline], the ThS net change worked out at 381.
Molecule `CN(CCOc1ccc(NS(C)(=O)=O)cc1)CCc1ccc(NS(C)(=O)=O)cc1` [Dofetilide] displayed a ThS net change of 388.

Still in this experiment, the particulars now being: 1280-compound library screen; […].
`C[C@]12CC[C@H](O)C[C@H]1CC[C@@H]1[C@@H]2CC[C@]2(C)[C@@H](C3=CC(=O)OC3)CC[C@]12O` [Digitoxigenin] yielded a ThS net change of 383.
With `C[C@H]1O[C@@H](O[C@H]2[C@@H](O)C[C@H](O[C@H]3[C@@H](O)C[C@H](O[C@H]4CC[C@@]5(C)[C@H](CC[C@@H]6[C@@H]5C[C@@H](O)[C@]5(C)[C@@H](C7=CC(=O)OC7)CC[C@]65O)C4)O[C@@H]3C)O[C@@H]2C)C[C@H](O)[C@@H]1O` [Digoxin], the ThS net change was 404.

Staying with this experiment, now noted: flag: p-tau aggregation inhibitor, ThS net change more than 3 SD from mean.
With `OCCN(CCO)c1nc(N2CCCCC2)c2nc(N(CCO)CCO)nc(N3CCCCC3)c2n1` [Dipyridamole], the “PTAI>3SD” value is “*”.

Staying with this experiment, now noted: library screen, ThS fluorescence net change over 16 h with p-tau.
On to `CCN(CC)CCOC(=O)C1(C2CCCCC2)CCCCC1` [Dicyclomine hydrochloride], for which the ThS net change is 282.
Still for that read-out and setting: with `O=c1[nH]cnc2c1ncn2[C@H]1CC[C@@H](CO)O1` [Didanosine] the figure was 321.
`O=C(O)c1cc(-c2ccc(F)cc2F)ccc1O` [Diflunisal] returned a ThS net change of 304.
With `COc1cc(C(=O)OCCCN2CCCN(CCCOC(=O)c3cc(OC)c(OC)c(OC)c3)CC2)cc(OC)c1OC.Cl.Cl` [Dilazep dihydrochloride], the ThS net change came out at 286.
On the same count and under the same terms, with `COc1ccc(-c2cc(=O)c3c(O)cc(O[C@@H]4O[C@H](CO[C@@H]5O[C@@H](C)[C@H](O)[C@@H](O)[C@H]5O)[C@@H](O)[C@H](O)[C@H]4O)cc3o2)cc1O` [Diosmin] the figure was 211; with `COc1ccc(C(=O)c2ccccc2O)c(O)c1` [Dioxybenzone], 296; with `OCCN(CCO)c1nc(N2CCCCC2)c2nc(N(CCO)CCO)nc(N3CCCCC3)c2n1` [Dipyridamole], -5843.
The same measure, in the same setting: for `CC(CCc1ccc(O)cc1)NCCc1ccc(O)c(O)c1` (centres unmarked) [Dobutamine hydrochloride] the value was 257.

Staying with this experiment, now noted: p-tau aggregation modulator screen of 1280-compound library; ThS fluorescence net change.
Take `O=C(O)Cc1ccccc1Nc1c(Cl)cccc1Cl` [Diclofenac sodium]: the ThS net change was found to be 376.
As to `O=c1oc2ccccc2c(O)c1Cc1c(O)c2ccccc2oc1=O` [Dicumarol], the ThS net change is listed as 363.
Still for that read-out and setting: for `CN[C@@H]1[C@H](O[C@H]2[C@H](O[C@H]3[C@H](O)[C@@H](O)[C@H](NC(=N)N)[C@@H](O)[C@@H]3NC(=N)N)O[C@@H](C)[C@]2(O)CO)O[C@@H](CO)[C@H](O)[C@H]1O` [Dihydrostreptomycin sulfate] the value was 331; for `CN(C(=O)C(Cl)Cl)c1ccc(OC(=O)c2ccco2)cc1` [Diloxanide furoate], 371; for `CN(C)CCOC(c1ccccc1)c1ccccc1.Cn1c(=O)c2[nH]c(Cl)nc2n(C)c1=O` [Dimenhydrinate], 345.
On the same count and under the same terms, for `O=C(Nc1ccccc1)OCC(CN1CCCCC1)OC(=O)Nc1ccccc1` (centres unmarked) [Diperodon hydrochloride] the value was 347; for `C[N+]1(C)CCC(=C(c2ccccc2)c2ccccc2)CC1` [Diphemanil methylsulfate], 350.
`CN(C)CCOC(c1ccccc1)c1ccccc1` [Diphenhydramine hydrochloride] showed a ThS net change of 335.
`OC(CCCN1CCCCC1)(c1ccccc1)c1ccccc1` [Diphenidol hydrochloride] yielded a ThS net change of 345.
The same measure, in the same setting: for `CNCC(O)c1ccc(OC(=O)C(C)(C)C)c(OC(=O)C(C)(C)C)c1` (centres unmarked) [Dipivefrin hydrochloride] the value was 357.
As to `Cc1c(N(C)CS(=O)(=O)[O-])c(=O)n(-c2ccccc2)n1C.[Na+]` [Dipyrone], the ThS net change was determined as 363.
Molecule `CC(C)N(CCC(C(N)=O)(c1ccccc1)c1ccccn1)C(C)C` (centres unmarked) [Disopyramide] registered a ThS net change of 377.
With `CCN(CC)C(=S)SSC(=S)N(CC)CC` [Disulfiram], the ThS net change was found to be 339.

The experiment is the same for the next values; noted with them: p-tau aggregation modulator screen of 1280-compound library; […].
For `CN1C[C@H](C(=O)N[C@]2(C)O[C@@]3(O)[C@@H]4CCCN4C(=O)[C@H](Cc4ccccc4)N3C2=O)CC2c3cccc4[nH]cc(c34)C[C@H]21.CN1C[C@H](C(=O)N[C@]2(C)O[C@@]3(O)[C@@H]4CCCN4C(=O)[C@H](Cc4ccccc4)N3C2=O)C[C@@H]2c3cccc4[nH]cc(c34)C[C@H]21.O=C(O)C(O)C(O)C(=O)O` (some centres unmarked) [Dihydroergotamine tartrate], the ThS net change is 342.
With `C[C@]12N[C@H](Cc3ccccc31)c1ccccc12` [Dizocilpine maleate], the ThS net change is listed as 349.
Molecule `CS(=O)(=O)O.O.O=C(O[C@@H]1C[C@@H]2C[C@@H]3C[C@H](C1)N2CC3=O)c1c[nH]c2ccccc12` [Dolasetron mesilate] gave a ThS net change of 353.

The same experiment, now with this note: p-tau aggregation modulator screen of the compound library, ThS fluorescence net change.
The molecule `N#CC(c1ccc(Cl)cc1)c1c(Cl)cc(-n2ncc(=O)[nH]c2=O)cc1Cl` (centres unmarked) [Diclazuril] showed a ThS net change of 507.
As to `C[C@]12CC[C@H](O)C[C@H]1CC[C@@H]1[C@@H]2C[C@@H](O)[C@]2(C)[C@@H](C3=CC(=O)OC3)CC[C@]12O` [Digoxigenin], the ThS net change is recorded as 440.
Same read-out and setting: with `CN(C)CCCSC(=N)N.Cl.Cl` [Dimaprit dihydrochloride] the figure was 436; with `CC[C@H]1OC(=O)[C@H](C)[C@@H](O[C@H]2C[C@@](C)(OC)[C@@H](O)[C@H](C)O2)[C@H](C)[C@@H](O[C@@H]2O[C@H](C)C[C@H](N(C)C)[C@H]2O)[C@](C)(O)C[C@@H](C)[C@@H]2N[C@@H](COCCOC)O[C@H]([C@H]2C)[C@]1(C)O` [Dirithromycin], 418.
The molecule `CC(=O)O[C@@]12CO[C@@H]1C[C@H](O)[C@@]1(C)C(=O)[C@H](O)C3=C(C)[C@@H](OC(=O)[C@H](O)[C@@H](NC(=O)OC(C)(C)C)c4ccccc4)C[C@@](O)([C@@H](OC(=O)c4ccccc4)[C@H]21)C3(C)C` [Docetaxel] returned a ThS net change of 542.

Values taken from PMC7539012, “Hyperphosphorylated tau aggregation and cytotoxicity modulators screen identified prescription drugs linked to Alzheimer's disease and cognitive functions” (Scientific Reports, 2020).
